Laboratory results reported in US20220296613A1, “FOOD-INDEPENDENT DOSING OF CV-10155 TO TREAT GABAA DISORDERS” (priority 2021, published 2022).
Several values for one entry are separate records, joined by “and”; a condition that tells them apart may be missing. Equal entries are not always repeated.

Key:
α1β2γ2 GABAA receptors = α1β2γ2 GABAA receptors (Homo sapiens, UniProt P14867+P47870); assay: Synchropatch electrophysiology, potentiation of synaptic GABAA receptors; assay type: cell-based
clinical = details: human, in vivo, 60 mg
[1] = Pharmacokinetics of CV-10155 solid dosage forms in fed or fasted beagle dogs; details: for AUC(0-t): AUCLast; for MRT inf: MRTInf; for half-life: T½
[2] = HPMC-AS formulation, 10 mg PO, fed cohort, individual dogs
[3] = HPMC-AS formulation, 10 mg PO, fed cohort, mean of 4 dogs
[4] = HPMC-AS formulation, 10 mg PO, pentagastrin/fasted cohort, individual dogs
[5] = HPMC-AS formulation, 10 mg PO, pentagastrin/fasted cohort, mean of 4 dogs
[6] = HPMC-AS formulation, 30 mg PO, pentagastrin/fasted cohort, individual dogs
[7] = HPMC-AS formulation, 30 mg PO, pentagastrin/fasted cohort, mean of 4 dogs
[8] = male, beagle, dog, plasma, po, 10 mg, HPMC-AS formulation, 10 mg PO, fed cohort, mean of 4 dogs
[9] = male, beagle, dog, plasma, po, 10 mg, HPMC-AS formulation, 10 mg PO, pentagastrin/fasted cohort, mean of 4 dogs
[10] = male, beagle, dog, plasma, po, 10 mg, HPMC-AS formulation, 10 mg PO, fed cohort, individual dogs
[11] = male, beagle, dog, plasma, po, 30 mg, HPMC-AS formulation, 30 mg PO, pentagastrin/fasted cohort, mean of 4 dogs
[12] = male, beagle, dog, plasma, po, 30 mg, HPMC-AS formulation, 30 mg PO, pentagastrin/fasted cohort, individual dogs

Chain of α1β2γ2 GABAA receptors (P14867 28-456): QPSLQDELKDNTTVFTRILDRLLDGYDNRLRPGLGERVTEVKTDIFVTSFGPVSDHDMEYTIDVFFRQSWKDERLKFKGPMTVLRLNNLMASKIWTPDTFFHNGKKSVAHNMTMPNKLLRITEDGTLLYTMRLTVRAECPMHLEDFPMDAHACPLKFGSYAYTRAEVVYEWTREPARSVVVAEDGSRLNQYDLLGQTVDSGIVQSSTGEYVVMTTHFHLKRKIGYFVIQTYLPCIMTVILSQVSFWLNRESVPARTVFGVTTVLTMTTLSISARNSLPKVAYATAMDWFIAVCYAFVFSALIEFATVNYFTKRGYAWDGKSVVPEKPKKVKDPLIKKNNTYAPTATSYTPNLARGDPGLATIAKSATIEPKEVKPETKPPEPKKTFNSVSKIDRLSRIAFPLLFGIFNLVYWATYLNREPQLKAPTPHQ
Chain of α1β2γ2 GABAA receptors (P47870 25-512 limits assumed): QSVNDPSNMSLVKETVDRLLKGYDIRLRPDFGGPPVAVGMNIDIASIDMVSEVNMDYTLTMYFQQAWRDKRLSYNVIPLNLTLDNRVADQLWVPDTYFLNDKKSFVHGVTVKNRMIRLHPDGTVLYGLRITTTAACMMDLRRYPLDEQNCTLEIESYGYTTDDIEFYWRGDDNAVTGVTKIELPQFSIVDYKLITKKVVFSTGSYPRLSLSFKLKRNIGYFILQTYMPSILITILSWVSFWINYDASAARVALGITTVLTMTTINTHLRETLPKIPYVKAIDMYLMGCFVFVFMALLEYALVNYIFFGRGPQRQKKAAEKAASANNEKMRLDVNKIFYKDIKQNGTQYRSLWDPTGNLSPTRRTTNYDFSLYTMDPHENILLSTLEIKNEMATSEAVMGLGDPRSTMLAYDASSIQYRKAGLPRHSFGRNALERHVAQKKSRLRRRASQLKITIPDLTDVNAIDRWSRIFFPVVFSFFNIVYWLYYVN
Chain of α1β2γ2 GABAA receptors (P18507 40-475 partner): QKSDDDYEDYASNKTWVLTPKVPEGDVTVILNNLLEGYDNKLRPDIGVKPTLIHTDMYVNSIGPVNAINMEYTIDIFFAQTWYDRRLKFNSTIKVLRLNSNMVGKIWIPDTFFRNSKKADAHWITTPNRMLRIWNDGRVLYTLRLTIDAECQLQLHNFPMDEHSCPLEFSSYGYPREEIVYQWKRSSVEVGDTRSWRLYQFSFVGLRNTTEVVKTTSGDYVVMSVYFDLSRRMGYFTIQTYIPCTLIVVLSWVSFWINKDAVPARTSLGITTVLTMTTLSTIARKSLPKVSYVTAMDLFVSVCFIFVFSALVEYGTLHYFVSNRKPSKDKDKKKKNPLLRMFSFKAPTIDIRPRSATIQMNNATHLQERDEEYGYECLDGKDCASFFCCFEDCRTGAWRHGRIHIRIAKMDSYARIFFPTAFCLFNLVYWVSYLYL

**Q.** For `C[C@@]1(O)CC[C@@]2(C)[C@@H](CC[C@@H]3[C@@H]2CC[C@]2(C)[C@@H](C(=O)Cn4cc(C#N)cn4)CC[C@@H]32)C1` [CV-10155, 1-[2-[(3R,5S,8R,9S,10S,13S,14S,17S)-3-hydroxy-3,10,13-trimethyl-1,2,4,5,6,7,8,9,11,12,14,15,16,17-tetradecahydrocyclopenta[a]phenanthren-17-yl]-2-oxoethyl]pyrazole-4-carbonitrile], which EC50 (α1β2γ2 GABAA receptors) is on record?
**A.** 0.207 µM

**Q.** And the Emax (α1β2γ2 GABAA receptors; α1β2γ2 Synaptic receptors, Synchropatch electrophysiology, read-out: Emax - efficacy: % of potentiation)?
**A.** 586%

**Q.** And the AUC (clinical)?
**A.** 2.9 µg·h/mL

**Q.** What about the Cmax (clinical) of the same compound?
**A.** 0.253 µg/mL

**Q.** And the Tmax (clinical)?
**A.** 3 h

**Q.** What about the half-life (clinical) of the same compound?
**A.** 34.5 h

**Q.** What about the AUCExtr [1, 2] of the same compound?
**A.** 23.1% and 21.3% and 22.0% and 23.4%

**Q.** And the AUCInf [1, 2]?
**A.** 5.047 µg·h/mL and 2.44 µg·h/mL and 2.105 µg·h/mL and 3.712 µg·h/mL

**Q.** And the AUCInf/D [1, 2]?
**A.** 5602 kg·ng·h/mL/mg and 2929 kg·ng·h/mL/mg and 2273 kg·ng·h/mL/mg and 4084 kg·ng·h/mL/mg

**Q.** And the AUCLast [1, 2]?
**A.** 3.882 µg·h/mL and 1.919 µg·h/mL and 1.641 µg·h/mL and 2.845 µg·h/mL

**Q.** And the Cmax [1, 2]?
**A.** 0.512 µg/mL and 0.334 µg/mL and 0.273 µg/mL and 0.649 µg/mL

**Q.** And the F [1, 2]?
**A.** 71.6% and 38.3% and 29.4% and 52.0%

**Q.** And the MRTInf [1, 2]?
**A.** 14.8 h and 15.0 h and 15.5 h

**Q.** And the T½ [1, 2]?
**A.** 12.5 h and 12.2 h and 15.0 h

**Q.** And the AUCExtr [1, 3]?
**A.** 22.5%

**Q.** And the AUCInf/D [1, 3]?
**A.** 3722 kg·ng·h/mL/mg

**Q.** What about the F [1, 3] of the same compound?
**A.** 47.8%

**Q.** What about the AUCExtr [1, 4] of the same compound?
**A.** 20.4% and 14.1% and 47.1% and 17.9%

**Q.** And the AUCInf [1, 4]?
**A.** 2.465 µg·h/mL and 2.612 µg·h/mL

**Q.** And the AUCInf/D [1, 4]?
**A.** 2762 kg·ng·h/mL/mg and 2441 kg·ng·h/mL/mg and 3314 kg·ng·h/mL/mg and 2821 kg·ng·h/mL/mg

**Q.** What about the AUCLast [1, 4] of the same compound?
**A.** 2.118 µg·h/mL and 1.754 µg·h/mL and 2.145 µg·h/mL

**Q.** And the Cmax [1, 4]?
**A.** 0.34 µg/mL and 0.183 µg/mL and 0.217 µg/mL

**Q.** And the F [1, 4]?
**A.** 36.5% and 34.8% and 29.1% and 38.5%

**Q.** And the MRTInf [1, 4]?
**A.** 14.8 h and 11.6 h and 33.6 h and 13.6 h

**Q.** What about the Tmax [1, 4] of the same compound?
**A.** 1 h

**Q.** And the T½ [1, 4]?
**A.** 11.1 h and 8.84 h and 25.7 h and 9.66 h

**Q.** What about the AUCExtr [1, 5] of the same compound?
**A.** 24.8%

**Q.** And the AUCInf/D [1, 5]?
**A.** 2834 kg·ng·h/mL/mg

**Q.** And the F [1, 5]?
**A.** 34.7%

**Q.** And the AUCExtr [1, 6]?
**A.** 30.3% and 27.1% and 19.4% and 24.4%

**Q.** And the AUCInf [1, 6]?
**A.** 12.588 µg·h/mL and 8.62 µg·h/mL and 4.072 µg·h/mL and 7.783 µg·h/mL

**Q.** And the AUCInf/D [1, 6]?
**A.** 4995 kg·ng·h/mL/mg and 3157 kg·ng·h/mL/mg and 1572 kg·ng·h/mL/mg and 2982 kg·ng·h/mL/mg

**Q.** And the AUCLast [1, 6]?
**A.** 8.769 µg·h/mL and 6.285 µg·h/mL and 3.281 µg·h/mL and 5.884 µg·h/mL

**Q.** And the Cmax [1, 6]?
**A.** 1.44 µg/mL and 0.954 µg/mL and 0.302 µg/mL and 0.993 µg/mL

**Q.** What about the F [1, 6] of the same compound?
**A.** 57.8% and 38.3% and 21.1% and 37.5%

**Q.** What about the MRTInf [1, 6] of the same compound?
**A.** 18.1 h and 14.4 h and 16.2 h

**Q.** What about the T½ [1, 6] of the same compound?
**A.** 13.6 h and 9.98 h and 12.3 h

**Q.** What about the AUCExtr [1, 7] of the same compound?
**A.** 25.3%

**Q.** What about the AUCInf/D [1, 7] of the same compound?
**A.** 3177 kg·ng·h/mL/mg

**Q.** What about the F [1, 7] of the same compound?
**A.** 38.6%

**Q.** What about the AUC(0-inf) ([1]; male, beagle, dog, in vivo, po, 10 mg) of the same compound?
**A.** 3.31 µg·h/mL

**Q.** What about the AUC(0-inf) ([1]; male, beagle, dog, plasma, po, 10 mg, AUCInf, HPMC-AS formulation, 10 mg PO, fed cohort, mean of 4 dogs) of the same compound?
**A.** 3.33 µg·h/mL

**Q.** What about the AUC(0-inf) ([1]; male, beagle, dog, plasma, po, 10 mg, AUCInf, HPMC-AS formulation, 10 mg PO, pentagastrin/fasted cohort, individual dogs) of the same compound?
**A.** 2.63 µg·h/mL

**Q.** What about the AUC(0-inf) ([1]; male, beagle, dog, plasma, po, 10 mg, AUCInf, HPMC-AS formulation, 10 mg PO, pentagastrin/fasted cohort, mean of 4 dogs) of the same compound?
**A.** 2.75 µg·h/mL

**Q.** What about the AUC(0-t) [1, 8] of the same compound?
**A.** 2.57 µg·h/mL

**Q.** And the AUC(0-t) ([1]; male, beagle, dog, plasma, po, 10 mg, HPMC-AS formulation, 10 mg PO, pentagastrin/fasted cohort, individual dogs)?
**A.** 2.09 µg·h/mL

**Q.** What about the AUC(0-t) [1, 9] of the same compound?
**A.** 2.03 µg·h/mL

**Q.** What about the Cmax ([1]; male, beagle, dog, plasma, po, 10 mg, Cmax, HPMC-AS formulation, 10 mg PO, fed cohort, mean of 4 dogs) of the same compound?
**A.** 0.442 µg/mL

**Q.** And the Cmax ([1]; male, beagle, dog, plasma, po, 10 mg, Cmax, HPMC-AS formulation, 10 mg PO, pentagastrin/fasted cohort, individual dogs)?
**A.** 0.222 µg/mL

**Q.** What about the Cmax ([1]; male, beagle, dog, plasma, po, 10 mg, Cmax, HPMC-AS formulation, 10 mg PO, pentagastrin/fasted cohort, mean of 4 dogs) of the same compound?
**A.** 0.241 µg/mL

**Q.** And the MRT inf [1, 10]?
**A.** 15.7 h

**Q.** And the MRT inf [1, 8]?
**A.** 15.3 h

**Q.** What about the MRT inf [1, 9] of the same compound?
**A.** 18.4 h

**Q.** And the Tmax ([1]; male, beagle, dog, plasma, po, 10 mg, Tmax, HPMC-AS formulation, 10 mg PO, fed cohort, mean of 4 dogs)?
**A.** 1.13 h

**Q.** And the Tmax ([1]; male, beagle, dog, plasma, po, 10 mg, Tmax, HPMC-AS formulation, 10 mg PO, pentagastrin/fasted cohort, individual dogs)?
**A.** 2 h

**Q.** And the Tmax ([1]; male, beagle, dog, plasma, po, 10 mg, Tmax, HPMC-AS formulation, 10 mg PO, pentagastrin/fasted cohort, mean of 4 dogs)?
**A.** 1.5 h

**Q.** What about the half-life [1, 10] of the same compound?
**A.** 12.6 h

**Q.** And the half-life [1, 8]?
**A.** 13.1 h

**Q.** And the half-life [1, 9]?
**A.** 13.8 h

**Q.** And the AUC(0-inf) ([1]; male, beagle, dog, plasma, po, 30 mg, AUCInf, HPMC-AS formulation, 30 mg PO, pentagastrin/fasted cohort, mean of 4 dogs)?
**A.** 8.27 µg·h/mL

**Q.** And the AUC(0-t) [1, 11]?
**A.** 6.05 µg·h/mL

**Q.** What about the Cmax ([1]; male, beagle, dog, plasma, po, 30 mg, Cmax, HPMC-AS formulation, 30 mg PO, pentagastrin/fasted cohort, mean of 4 dogs) of the same compound?
**A.** 0.922 µg/mL

**Q.** And the MRT inf [1, 12]?
**A.** 20 h

**Q.** And the MRT inf [1, 11]?
**A.** 17.2 h

**Q.** What about the Tmax ([1]; male, beagle, dog, plasma, po, 30 mg, Tmax, HPMC-AS formulation, 30 mg PO, pentagastrin/fasted cohort, mean of 4 dogs) of the same compound?
**A.** 1 h

**Q.** What about the half-life [1, 12] of the same compound?
**A.** 17.8 h

**Q.** What about the half-life [1, 11] of the same compound?
**A.** 13.4 h
